Measurements as given in the supplement of paper PMC13380429.

Experiments:
Details in all cases: 72 h
Vero E6 [1] = assay: cell viability relative to DMSO; higher = less toxic
U2OS [2] = assay: as above
HepG2 [3] = assay: as above
Caco-2 [4] = assay: as above
Calu-3 [5] = assay: as above
Vero E6 [6] = assay: drug sensitivity score (DSS) for viability; higher = more toxic; extreme values may be limits of the assay
U2OS [7] = assay: as above
HepG2 [8] = assay: as above
Caco-2 [9] = assay: as above
Calu-3 [10] = assay: as above
Vero E6 [11] = assay: relative viability EC50 (midpoint between 100% and the lowest measured viability); higher = less toxic
U2OS [12] = assay: as above
HepG2 [13] = assay: as above
Caco-2 [14] = assay: as above
Calu-3 [15] = assay: as above

| Structure (SMILES) | cell viability (Vero E6 [1]; 1 nM) | cell viability (Vero E6 [1]; 10 nM) | cell viability (Vero E6 [1]; 100 nM) | cell viability (Vero E6 [1]; 1000 nM) | cell viability (Vero E6 [1]; 10000 nM) | cell viability (U2OS [2]; 1 nM) | cell viability (U2OS [2]; 10 nM) | cell viability (U2OS [2]; 100 nM) | cell viability (U2OS [2]; 1000 nM) | cell viability (U2OS [2]; 10000 nM) | cell viability (HepG2 [3]; 1 nM) | cell viability (HepG2 [3]; 10 nM) | cell viability (HepG2 [3]; 100 nM) | cell viability (HepG2 [3]; 1000 nM) | cell viability (HepG2 [3]; 10000 nM) | cell viability (Caco-2 [4]; 1 nM) | cell viability (Caco-2 [4]; 10 nM) | cell viability (Caco-2 [4]; 100 nM) | cell viability (Caco-2 [4]; 1000 nM) | cell viability (Caco-2 [4]; 10000 nM) | cell viability (Calu-3 [5]; 1 nM) | cell viability (Calu-3 [5]; 10 nM) | cell viability (Calu-3 [5]; 100 nM) | cell viability (Calu-3 [5]; 1000 nM) | cell viability (Calu-3 [5]; 10000 nM) | drug sensitivity score (Vero E6 [6]) | drug sensitivity score (U2OS [7]) | drug sensitivity score (HepG2 [8]) | drug sensitivity score (Caco-2 [9]) | drug sensitivity score (Calu-3 [10]) | relative viability EC50 (Vero E6 [11]) | relative viability EC50 (U2OS [12]) | relative viability EC50 (HepG2 [13]) | relative viability EC50 (Caco-2 [14]) | relative viability EC50 (Calu-3 [15]) |
| --- | --- | --- | --- | --- | --- | --- | --- | --- | --- | --- | --- | --- | --- | --- | --- | --- | --- | --- | --- | --- | --- | --- | --- | --- | --- | --- | --- | --- | --- | --- | --- | --- | --- | --- | --- |
| N[C@@H](C[C@@H](F)C(=O)O)C(=O)O [BAY-85-8050] | 93.6% | 93.8% | 102% | 95.7% | 100% | 93.5% | 99.6% | 96.7% | 100% | 106% | 96.2% | 98.7% | 109% | 95.6% | 99.7% | 91.1% | 105% | 97.8% | 100% | 110% | 90.2% | 94.7% | 90.6% | 86.2% | 98.5% | 0 | 0 | 0 | 0 | 0 | > 10 µM | > 10 µM | > 10 µM | > 10 µM | > 10 µM |
| COC(=O)c1ccc2c(c1)nc(NC(=O)c1ccccc1)n2CCCc1ccccc1 [BRD4770] | 103% | 97.4% | 98% | 96.6% | 90.1% | 97.9% | 98.6% | 98.2% | 99.3% | 88.3% | 109% | 97.2% | 99.9% | 94.3% | 77% | 98% | 103% | 94.1% | 91.9% | 80% | 107% | 96.6% | 97.4% | 93.6% | 95.5% | 0 | 0.1 | 1.6 | 1 | 0 | > 10 µM | > 10 µM | > 10 µM | > 10 µM | > 10 µM |
| CC1(C)[C@@H](OC(=O)CCC(=O)O)CC[C@]2(C)[C@H]3C(=O)C=C4[C@@H]5C[C@@](C)(C(=O)O)CC[C@]5(C)CC[C@@]4(C)[C@]3(C)CC[C@@H]12 [CARBENOXOLONE SODIUM] | 100% | 49.3% | 101% | 59.6% | 99.2% | 107% | 99.8% | 101% | 103% | 104% | 97.8% | 98% | 113% | 96.6% | 91.2% | 94.4% | 96.6% | 92.3% | 99.1% | 99% | 88.9% | 102% | 92.8% | 106% | 96% | 0 | 0 | 0 | 0 | 0 | > 10 µM | > 10 µM | > 10 µM | > 10 µM | > 10 µM |
| O=C(O)[C@H]1CN(CCCP(=O)(O)O)CCN1 [CPP] | 99.2% | 103% | 99.8% | 102% | 102% | 103% | 106% | 101% | 101% | 99.8% | 96.6% | 112% | 98.6% | 103% | 104% | 97% | 101% | 103% | 101% | 94.5% | 102% | 104% | 92.6% | 89.4% | 90.5% | 0 | 0 | 0 | 0 | 0.2 | > 10 µM | > 10 µM | > 10 µM | > 10 µM | > 10 µM |
| c1ccc(CNc2nc(NCc3ccccc3)c3ccccc3n2)cc1 [DBeQ] | 99.8% | 98.9% | 95.5% | 94.1% | 19.8% | 97.6% | 102% | 97.1% | 90.5% | 8.2% | 104% | 96.1% | 100% | 96.6% | 8.4% | 95.7% | 112% | 94.5% | 100% | 28.8% | 105% | 103% | 91.2% | 93.7% | 9% | 5.4 | 6.7 | 5.5 | 3.9 | 6 | 2.57 µM | 2.31 µM | 2.89 µM | 3.17 µM | 2.61 µM |
| O=P(O)(O)CN(CCN(CP(=O)(O)O)CP(=O)(O)O)CP(=O)(O)O [EDTMP] | 96.1% | 99.8% | 102% | 98.2% | 91% | 99.8% | 95.9% | 102% | 97.8% | 104% | 88.5% | 96.3% | 96.5% | 92.2% | 106% | 98.2% | 95.5% | 95.4% | 105% | 104% | 105% | 100% | 96% | 97.1% | 99% | 0 | 0 | 0 | 0 | 0 | > 10 µM | > 10 µM | > 10 µM | > 10 µM | > 10 µM |
| C[C@@H](CCCCC(=O)Nc1ccc(C(F)(F)F)cc1)NCCc1c[nH]cn1 [HTMT] | 98.3% | 94.7% | 98% | 100% | 108% | 99.9% | 100% | 96.9% | 101% | 106% | 110% | 95.6% | 104% | 104% | 98% | 97.2% | 92.8% | 87% | 99.4% | 94.1% | 100% | 97.8% | 100% | 106% | 100% | 0 | 0 | 0 | 0 | 0 | > 10 µM | > 10 µM | > 10 µM | > 10 µM | > 10 µM |
| O=C(Nc1cc(C(F)(F)F)cc(C(F)(F)F)c1)c1cc(Cl)ccc1O [IKK-2-inhibitor-V] | 100% | 90.5% | 98.8% | 52.6% | 16.3% | 95.7% | 101% | 89.7% | 82.9% | 11.2% | 99.6% | 99.6% | 112% | 17.2% | 6.8% | 95.9% | 89.4% | 95.3% | 29.2% | 14.5% | 98.4% | 107% | 98.3% | 99.8% | 13.8% | 10.3 | 7.7 | 14.7 | 13.8 | 4.8 | 0.876 µM | 1.77 µM | 0.477 µM | 0.436 µM | 3.14 µM |
| O=C(NCc1ccc(Oc2ccccc2)cc1)c1nc(-c2cc(Br)c(O)c(Br)c2)no1 [IOWH032] | 102% | 106% | 104% | 98.2% | 79.9% | 96.7% | 98.5% | 96.4% | 94.5% | 92.3% | 91.3% | 102% | 86.7% | 101% | 76.1% | 104% | 100% | 99.1% | 88.4% | 81% | 101% | 102% | 95.9% | 100% | 88.7% | 0.8 | 0 | 0.8 | 1.4 | 0 | > 10 µM | > 10 µM | > 10 µM | > 10 µM | > 10 µM |
| O=C(Oc1ccc([N+](=O)[O-])cc1)N1CCN(Cc2cccc(Oc3ccccc3)c2)CC1 [JZL-195] | 97.3% | 103% | 104% | 92.9% | 99.7% | 98.6% | 100% | 97.4% | 100% | 94.6% | 91.8% | 99.5% | 103% | 99.2% | 82.4% | 107% | 94.7% | 86.7% | 93.7% | 95.4% | 102% | 104% | 91.5% | 103% | 93.5% | 0 | 0 | 0.5 | 0 | 0 | > 10 µM | > 10 µM | > 10 µM | > 10 µM | > 10 µM |
| O=C(O)c1ccc(N[C@@H]2O[C@H](CO)[C@@H](O)[C@H](O)[C@@H]2O)cc1 [K-MAP] | 94.7% | 96.7% | 93.2% | 98.8% | 109% | 99.7% | 95.4% | 100% | 97.7% | 100% | 90.8% | 98.1% | 95.4% | 97.1% | 97.5% | 92.7% | 93.3% | 89.5% | 91% | 95.8% | 117% | 99.5% | 105% | 102% | 99% | 0 | 0 | 0 | 0 | 0 | > 10 µM | > 10 µM | > 10 µM | > 10 µM | > 10 µM |
| CN[C@@H](C)C(=O)N[C@H](C(=O)N1CCC[C@H]1c1nc(C(=O)c2ccc(F)cc2)cs1)C1CCCCC1 [LCL-161] | 97.8% | 102% | 97.8% | 107% | 104% | 104% | 109% | 99.7% | 97.8% | 94% | 93.5% | 104% | 99.8% | 83.4% | 89.8% | 99.9% | 97.9% | 91.9% | 103% | 95.2% | 106% | 102% | 97.6% | 86.4% | 77.2% | 0 | 0 | 1.8 | 0 | 2 | > 10 µM | > 10 µM | > 10 µM | > 10 µM | > 10 µM |
| CCCC(CCC)C(=O)NCc1ccc2c(cnn2-c2ccccc2OC)c1 [M-25] | 94.5% | 94.2% | 96.6% | 91.5% | 88.8% | 102% | 100% | 99.5% | 100% | 95.1% | 99.8% | 108% | 101% | 105% | 87% | 99.2% | 102% | 97.1% | 95.3% | 79.6% | 113% | 95.5% | 115% | 101% | 102% | 0 | 0 | 0 | 1.2 | 0 | > 10 µM | > 10 µM | > 10 µM | > 10 µM | > 10 µM |
| CO[C@H]1CC=C2CCN3CCC4=C(CC(=O)OC4)[C@]23C1 [NSC-9965] | 92.5% | 95.8% | 95% | 91.6% | 105% | 101% | 105% | 98.2% | 106% | 108% | 99.9% | 95% | 100% | 100% | 104% | 100% | 99.6% | 101% | 105% | 108% | 101% | 102% | 94.3% | 101% | 111% | 0 | 0 | 0 | 0 | 0 | > 10 µM | > 10 µM | > 10 µM | > 10 µM | > 10 µM |
